The numbers were not newly measured in patent publication US20170368079A1, “ANTI-INFLAMMATORY AND ANTIDIABETIC AGENTS” (priority 2016, published 2017), which cites them from elsewhere.

Read-outs that look alike come from different tables or passages of the source.

Series [1] concerns patients with type 2 diabetes.
For series [2], the system named is glucocorticoid metabolism. The settings on record: mice; pattern differs between liver and subcutaneous adipose tissue.
Series [3] relates to glucocorticoid metabolism. Particulars: humans; pattern differs between liver and subcutaneous adipose tissue.
The conditions of series [4]: compared with placebo, in contrast to aspirin.
The next series has as its system platelet aggregation. Particulars: unlike aspirin.
The subject of the next series is prostaglandin synthesis. The settings on record: in vivo; compared with aspirin and indomethacin.

Regarding `O=C(Oc1ccccc1C(=O)O)c1ccccc1O` [salsalate, 2-(2-hydroxybenzoyl)oxybenzoic acid], in series [1], the C-reactive protein result was “lowers”, the HbA1c levels result is recorded as “lowers”, the adiponectin concentrations entry is given as “increase” and the blood glucose result was “lowers”. Besides, in series [1], the circulating insulin entry is on record as “increase”, the free fatty acid entry is on record as “lowers”, the glucose utilization entry was “improve” and the triglycerides result is listed as “lowers”. Besides, the glucocorticoid metabolism entry in series [2] is recorded as “alters glucocorticoid metabolism”. Besides, the glucocorticoid metabolism entry in series [3] is reported as “alters glucocorticoid metabolism”. The “fecal gastrointestinal blood loss” value in series [4] is given as “no greater fecal gastrointestinal blood loss than placebo”. Also, the “inhibition of platelet aggregation” value with platelet aggregation is “does not inhibit platelet aggregation”. In addition, the anti-inflammatory activity result with prostaglandin synthesis was “equivalent to aspirin and indomethacin”.
